Article PMC9289672, “Optimization of Antibacterial Activity in Tibetan Swine α-Helix Peptide TP by Site-Directed Mutagenesis” (Frontiers in Microbiology, 2022)
Where no end group is shown, it is not given here.

What was measured:
Gram-negative bacteria = experiment: Geometric mean of MIC and therapeutic index; format: cell-based; conditions: for Therapeutic index (TI), Gram-negative bacteria: MHC/GM, 128 μm used when 50% hemolysis not observed at 128 μm
Experimental: (§1) The bacteria were cultured overnight in the MHB medium and transferred to the new MHB the next day until the bacteria reached the exponential growth stage. The bacteria were diluted with MHB to 2 × 10^5 CFU/ml. About 50 μl of polypeptide and equal volume of bacterial suspension was added to a 96-well plate to give the final concentration of polypeptide between 1 and 128 μm. The last two columns are negative (MHB only) and positive (bacterial and MHB) controls and incubated at 37°C for 18–24 h. Optical density was measured at an absorbance wavelength of 492 nm using a microplate reader (Tecan GENios F129004, Tecan, Austria). At least three independent measurements were taken. Each trial was conducted two times in parallel. A total of three independent assays were carried out.
(§2) Trp is a hydrophobic amino acid with aromatic side chains. It is a special amino acid in peptide design. Previous studies have pointed out that introducing amino acids will also bring toxicity while improving activity. […] For further evaluating the cell selectivity of the peptides, we also calculated the SI which defined as the ratio of MHC to the geometric mean (GM) (Dufourc, [2008]).

Gram-positive bacteria = experiment: Geometric mean of MIC and therapeutic index; format: cell-based; conditions: for Therapeutic index (TI), Gram-positive bacteria: MHC/GM, 128 μm used when 50% hemolysis not observed at 128 μm
Experimental: as §1, §2

all strains in Table 2 = experiment: Geometric mean of MIC and therapeutic index; format: cell-based; conditions: for Therapeutic index (TI) / selectivity index (SI), All: MHC/GM, 128 μm used when 50% hemolysis not observed at 128 μm
Experimental: as §1
Trp is a hydrophobic amino acid with aromatic side chains. It is a special amino acid in peptide design. Previous studies have pointed out that introducing amino acids will also bring toxicity while improving activity. Therefore, at the beginning of the design, we predicted that selecting Trp as hydrophobic amino acid to substitute H-H position would bring certain toxicity to the peptide. Thus, as expected, the introduction of Trp increases the activity and toxicity of these peptides. […] Meanwhile, the virulence of TP(i+4) 1&2&5&6 and TP(i+4) 1&2&6&7 was lower than that of TP(i+4) 1&2&5&7. We infer that the location of hydrophobic centers can effectively reduce peptide toxicity by Trp substitution. For further evaluating the cell selectivity of the peptides, we also calculated the SI which defined as the ratio of MHC to the geometric mean (GM) (Dufourc, [2008]).

[1] = tested on: hRBCs (human red blood cells)
Experimental: The cytotoxicity of each peptide was assessed with IPEC-J12 and HEK 293T cells. […] Each trial was conducted two times in parallel. A total of three independent assays were carried out.

[2] = tested on: Salmonella typhimurium ATCC 14028
Description: (§3) The bacteria strains Escherichia coli ATCC 25922, Escherichia coli UB1005, Salmonella typhimurium ATCC 14028, Salmonella typhimurium C7731, Pseudomonas aeruginosa ATCC 27853, Pseudomonas aeruginosa PAO1, Staphylococcus aureus ATCC 29213, Staphylococcus aureus ATCC 25923, Methicillin-resistant Staphylococcus aureus (MRSA) 43300, Enterococcus faecalis ATCC 29212, and Staphylococcus epidermidis ATCC 12228 were obtained from the College of Veterinary Medicine, Northeast Agricultural University (Harbin, China).
as §1

[3] = tested on: Escherichia coli ATCC 25922
Description: as §3, §1

[4] = tested on: Methicillin-resistant Staphylococcus aureus (MRSA) 43300; conditions: Methicillin-resistant 43300
Description: as §3, §1

[5] = tested on: Pseudomonas aeruginosa PAO1
Description: as §3, §1

[6] = tested on: Staphylococcus aureus ATCC 25923
Description: as §3, §1

[7] = tested on: Staphylococcus epidermidis ATCC 12228
Description: as §3, §1

[8] = tested on: Staphylococcus aureus ATCC 29213
Description: as §3, §1

[9] = tested on: Enterococcus faecalis ATCC 29212
Description: as §3, §1

[10] = tested on: Pseudomonas aeruginosa ATCC 27853
Description: as §3, §1

Escherichia coli UB1005 = conditions: MHB, bacteria diluted to 2 × 10^5 CFU/ml, peptide 1-128 μm, 37°C 18-24 h, OD 492 nm; three independent assays, two in parallel
Description: as §3, §1

[11] = tested on: Salmonella typhimurium C7731; conditions: MHB, bacteria diluted to 2 × 10^5 CFU/ml, peptide 1-128 μm, 37°C 18-24 h, OD 492 nm; three independent assays, two in parallel
Description: as §3, §1

[12] = strains of Table 2, 128 μm used when no activity at 128 μm

| Substance | Geometric mean (GM) of MIC, Gram-negative bacteria (Gram-negative bacteria; [12]) | Geometric mean (GM) of MIC, Gram-positive bacteria (Gram-positive bacteria; [12]) | Geometric mean (GM) of MIC, All (all strains in Table 2; all strains in Table 2, 128 μm used when no activity at 128 μm) | MHC (concentration of peptide that causes hemolysis of 50% of human red blood cells) [1] | MIC, S. typhimurium 14028 [2] | MIC, E. coli 25922 [3] | MIC, S. aureus 43300 [4] | MIC, P. aeruginosa PAO1 [5] | MIC, S. aureus 25923 [6] | MIC, S. epidermidis 12228 [7] | MIC, S. aureus 29213 [8] | MIC, E. faecalis 29212 [9] | MIC, P. aeruginosa 27853 [10] | Therapeutic index (TI), Gram-negative bacteria (Gram-negative bacteria) | Therapeutic index (TI), Gram-positive bacteria (Gram-positive bacteria) | Therapeutic index (TI) / selectivity index (SI), All (all strains in Table 2) | MIC, E. coli UB1005 (Escherichia coli UB1005) | MIC, S. typhimurium 7731 [11] |
| --- | --- | --- | --- | --- | --- | --- | --- | --- | --- | --- | --- | --- | --- | --- | --- | --- | --- | --- |
| AKVVKKLTKGVAGLLK-NH2 [TP(i+4) 1&3] | 71.84 µM | 128.00 µM | 95.89 µM | >128 µM | >128 µM | 64 µM | >128 µM | 64 µM | >128 µM | >128 µM | >128 µM | >128 µM | 128 µM |  |  |  |  |  |
| AKVVKKLTKGVAKLLK-NH2 [TP(i+4) 1&2&3] |  |  |  | >128 µM | 128 µM | 32 µM | >128 µM | 16 µM | >128 µM | >128 µM | >128 µM | >128 µM | 64 µM | 3.56 | 1.00 | 1.89 | 8 µM | 64 µM |
| AKVVNKLTGGVAGLLK-NH2 [TP(i+4) 3] |  |  |  | >128 µM | >128 µM | >128 µM | >128 µM | >128 µM | >128 µM | >128 µM | >128 µM | >128 µM | >128 µM | 1.00 | 1.00 | 1.00 | >128 µM | >128 µM |
| AKVVNKLTGKVAGLLK-NH2 [TP(i+4) 3&4] |  |  |  | >128 µM | >128 µM | 128 µM | >128 µM | 128 µM | >128 µM | >128 µM | >128 µM | >128 µM | >128 µM | 1.12 | 1.00 | 1.06 | 64 µM | >128 µM |
| AKVVNKLTKKVAKLLK-NH2 [TP(i+4) 2&3&4] |  |  |  | >128 µM | 64 µM | 16 µM | >128 µM | 8 µM | >128 µM | >128 µM | >128 µM | >128 µM | 128 µM | 4.00 | 1.00 | 2.00 | 16 µM | 64 µM |
| ASVVKKLTKGVAGLLK-NH2 [TP(i+4) 1] |  |  |  | >128 µM | 128 µM | 16 µM | >128 µM | 64 µM | >128 µM | >128 µM | >128 µM | >128 µM | 64 µM | 2.83 | 1.00 | 1.68 | 16 µM | 64 µM |
| ASVVKKLTKKVAGLLK-NH2 [TP(i+4) 1&4] |  |  |  | >128 µM | 64 µM | 8 µM | >128 µM | 16 µM | >128 µM | >128 µM | >128 µM | >128 µM | 32 µM |  | 1.00 | 2.56 | 8 µM | 32 µM |
| ASVVKKLTKKVAKLLK-NH2 [TP(i+4) 1&2&4] |  |  |  | >128 µM | 64 µM | 4 µM | >128 µM | 8 µM | >128 µM | >128 µM | >128 µM | >128 µM | 32 µM | 8.90 | 1.00 | 2.98 | 4 µM | 32 µM |
